Experimental data reported in patent US10933053B2, “Treating infections with ceftolozane/tazobactam in subjects having impaired renal function” (MERCK SHARP & DOHME CORP., priority 2013, dated 2021).
Marks after values point to notes of the source that are not given here. One block for each compound: values may come before it.

Experiments:
[1] = clinical; conditions: human, in vivo, 750 mg
Experimental: (§1) This was a Phase 1, multicenter, prospective, open-label study of 750 mg ceftolozane/tazobactam (as CXA-201) administered IV in male and female adult subjects with severe renal impairment (estimated CLCR<30 mL/min) and subjects with end-stage renal disease (ESRD) on hemodialysis (HD). The primary objective of the study was to determine the PK profile of ceftolozane/tazobactam in subjects with severe renal impairment and subjects with ESRD on HD and to determine the effect of HD on the clearance of ceftolozane/tazobactam.
(§2) Subjects with severe renal impairment received a single IV 1-hour infusion of 750 mg ceftolozane/tazobactam on Day 1. […] Subjects in this cohort received an IV dose of 750 mg ceftolozane/tazobactam as a 1 hour infusion immediately after their first HD session on Day 1 (post dialysis, approximately 72 hours prior to the next HD session) and a second dose of ceftolozane/tazobactam approximately 2 hours before their second HD session on Day 4 of the study. Infusion of ceftolozane/tazobactam was completed approximately 1 hour before the start of HD.
(§3) Subjects in both cohorts had urine (if not anuric) and plasma samples collected for determination of levels of ceftolozane, tazobactam and the M1 metabolite of tazobactam; subjects in the ESRD on HD cohort also had dialysate fluid samples collected for PK assessment. Plasma, urine, and dialysate levels of ceftolozane, tazobactam, and its metabolite M1 collected over a prespecified interval were determined by LC/MS/MS assay.

[2] = clinical; conditions: human, in vivo
Experimental: as §1, §2, §3
All subjects underwent hemodialysis for 3 to 4 hours using a high-flux membrane (either 1.4, 1.8, or 1.9 m^2) on Days 1, 4, and 6 as scheduled. Average blood flow rate was 264 to 600 mL/min and average dialysis flow rate was either 600 or 800 mL/min for all subjects with ESRD.
All cohorts received ceftolozane/tazobactam as an intravenous infusion over 1 h. The normal, mild, and moderate renal impairment cohorts received a single dose of ceftolozane/tazobactam 1,000 mg/500 mg; the severe renal impairment cohort received a single dose of ceftolozane/tazobactam 500 mg/250 mg; the ESRD cohort received a dose of ceftolozane/tazobactam 500 mg/250 mg initiated at the end of HD on day 1 and another dose initiated 2 h before HD on day 4. Subjects with ESRD underwent HD for 3 to 4 h using a high-flux membrane as scheduled; average dialysis flow rate was 600 to 800 ml/min. Revaclear hemodialyzers (Gambro, Stockholm, Sweden) were used in 5 subjects (ultrafiltration coefficient 50 to 60 ml/h/mmHg, high flux membrane of 1.4 to 1.8 m^2) and a CT 190G hemodialyzers (Baxter Healthcare, McGaw Park, Ill.) was used in 1 subject (ultrafiltration coefficient 36 ml/h/mmHg, high flux membrane of 1.9 m^2). The average blood flow rate was 400 to 600 ml/min with the exception of one subject with rates between 264 and 400 ml/min.
Plasma concentrations of ceftolozane and tazobactam were measured prior to, during, and following administration of ceftolozane/tazobactam. Blood samples were collected 30 min prior to administration, at the end of administration and at 5, 15, and 30 min and 1, 2, 3, 5, 7, 9, 11, 15, 25, and 35 h after completion of ceftolozane/tazobactam administration in the normal, mild, and moderate renal impairment cohorts. Severe renal impairment and ESRD cohorts off HD had samples taken 30 min prior to administration and at 0.5, 1, 1.5, 2, 3, 6, 9, 12, 24, 36, and 48 h after the start of administration. On the day of and following HD, the subjects with ESRD had samples taken 30 min prior to administration and at 0.5, 1, 1.5, 2, 3, 4, 5, 6, 9, 12, 24, 36, and 44 h after the start of the administration. The entire dialysate was collected at each of the following intervals: 0 to 1, 1 to 2, 2 to 3, and 3 h to the end of dialysis. Urine for PK analysis was obtained in the normal, mild, and moderate cohorts at 0 to 2, 2 to 4, 4 to 8, 8 to 12, 12 to 24, and 24 to 36 h after the start of ceftolozane/tazobactam administration.

[3] = clinical; conditions: human, in vivo; remark: listed apart in the source
Experimental: This TQT study was a single-center, prospective, randomized, double-blind, double-dummy, placebo and active controlled, 4-way crossover study that evaluated a single therapeutic 1.5 g and a single supratherapeutic 4.5 g dose of ceftolozane/tazobactam compared with placebo. Moxifloxacin 400 mg, given orally, was used as a positive control. All subjects received study drug on 4 dosing days (Day 1, Day 5, Day 9, and Day 13) in a crossover fashion with a 3-day wash-out period between doses. Healthy men and women were randomized on a 1:1:1:1 basis to 1 of 4 dosing sequences.
Electrocardiograms were recorded (triplicate measurements) over 24 hours on Day 1, Day 5, Day 9, and Day 13 using a 12-lead Holter monitor. Blood samples for determination of ceftolozane, tazobactam, and the M1 metabolite of tazobactam levels were obtained at prespecified time intervals prior to and following each electrocardiogram (ECG) reading on dosing days. Plasma levels of ceftolozane, tazobactam, and its metabolite M1 were determined by LC/MS/MS assay.

[4] = clinical; conditions: human, in vivo; remark: listed apart in the source
Experimental: The extent of ceftolozane exposure increases with decreasing renal function. […] In subjects with moderate renal impairment, exposure approximately doubles relative to that in subjects with normal renal function.
For tazobactam, this estimated exposure from a dose of 125 mg in subjects with severe renal impairment not on hemodialysis is similar to that achieved with 500 mg tazobactam in subjects with normal renal function (23.8 μg·h/mL).

[5] = clinical; conditions: human, in vivo; remark: listed apart in the source
Source text: The most common adverse reactions (≥5% in either indication) occurring in patients receiving CXA-201 were nausea, headache and diarrhea. Table 3 lists adverse reactions occurring in ≥1.0% of patients receiving CXA-201 in Phase 3 clinical trials.
The majority of adverse events were mild to moderate in severity, and the incidence of treatment-limiting adverse events was <2% in both treatment groups. Epidemiology and susceptibility of organisms isolated from patients with cUTI.

[6] = system: baseline intra-abdominal pathogens (complicated intra-abdominal infections); assay: Phase 3 study of complicated intra-abdominal infections: clinical cure at test-of-cure; type: in vivo, human; conditions: ME population
Experimental: A total of 979 adults hospitalized with complicated intra-abdominal infections were randomized and received study medications in a multinational, double-blind study comparing CXA-201 (1.5 g IV every 8 hours) plus metronidazole (500 mg IV every 8 hours) to meropenem (1 g IV every 8 hours) for 4 to 14 days of therapy. Complicated intra-abdominal infections included appendicitis, cholecystitis, diverticulitis, gastric/duodenal perforation, perforation of the intestine, and other causes of intra-abdominal abscesses and peritonitis. The primary efficacy endpoint was clinical response at the test-of-cure (TOC) visit in the microbiological intent-to-treat (MITT) population, which included all patients who had at least 1 baseline intra-abdominal pathogen. The key secondary efficacy endpoint was clinical response at the TOC visit in the microbiologically evaluable (ME) population, which included all protocol-adherent MITT patients.

[7] = system: QT/QTc interval; type: in vivo, human; conditions: 400 mg orally, positive control
Source text: The primary objectives of the study were to evaluate the effect of a single IV supratherapeutic dose of ceftolozane/tazobactam on ventricular repolarization as measured by QTc interval in healthy subjects compared to baseline-adjusted, time-matched placebo and to evaluate the change from the period-specific predose baseline of QT/QTc interval corrected by QTcI (individual QT correction subject-specific formula) across all dose groups.

[8] = system: baseline uropathogens (complicated urinary tract infections); assay: Phase 3 study of complicated urinary tract infections incl. pyelonephritis: composite cure / microbiological eradication at test-of-cure; type: in vivo, human; conditions: mMITT; patients with concurrent bacteremia
Source text: The primary efficacy endpoint was the composite microbiological and clinical cure response at the test-of-cure (TOC) visit in the microbiologically modified intent-to-treat (mMITT) population, which included all patients who received study medication and had at least 1 baseline uropathogen. The key secondary efficacy endpoint was the composite microbiological and clinical cure response at the TOC visit in the microbiologically evaluable (ME) population, which included protocol-adherent mMITT patients with a urine culture at the TOC visit.

[9] = system: Gram-negative aerobic organisms isolated from patients with cUTI; assay: Susceptibility testing of baseline cUTI isolates, CLSI broth microdilution (tazobactam fixed 4 μg/mL); type: cell-based; conditions: mMITT; ceftolozane/tazobactam breakpoint ≤8 mg/1, levofloxacin CLSI criteria
Experimental: 764 isolates of Gram-negative aerobic organisms were isolated from 800 patients in the microbiological modified intent-to-treat population (enrolled in 20 countries in Eastern Europe, North America, South America and 5 countries outside of these regions). Susceptibility (S) testing was performed with ceftolozane/tazobactam at a fixed 4 μg/mL of tazobactam and 10 antibiotic comparators using CLSI broth microdilution methods. ESBL enzymes were identified by PCR.

AUClast, mean (CV %) [1]: 53.7 (25) μg · h/mL
AUC∞, mean (CV %) [1]: 60.3 (30) μg · h/mL
AUC0-∞ [2]: 31.0 (23.4-34.9) μg * hr/mL
AUC48h Ratio (Day 3:1), median (range) [2]: 0.49 (0.38-0.78)
AUC(0-t) [2]: 26.8 (3.77-32.0) μg * hr/mL
AUCt0-t1, median (range) [2]: 27.5 (3.8-32.7) μg * hr/mL
Change in Concentration [2]: 9.1 (0.5-14.5)
Clast [2]: 0.41 (0.26-1.11) μg/mL
Clast lower than Cmax [2]: ~26 fold
Cmax [2]: 10.9 (1.26-15.7) μg/mL
Concentration after HD [2]: 0.4 (0.3-1.1) μg/mL
Concentration before HD [2]: 9.4 (1.4-14.9) μg/mL
Half-Life, median (range) [2]: 368.4^a hr
Percent Removed [2]: 93.4 (38.1-97.7) %
Percent Removed, median (range) [2]: 51 (22-63)
Tmax [2]: 1.50 (0.50-1.50) hr
half-life [2]: 1.80 (0.68-2.38) hr
median RDHD (percent reduction in plasma concentration during HD) [2]: 93%
median dialysis clearance (CLD) [2]: 4.59 L/h
removed by dialysis [2]: ~51%
t1/2 during the HD period (median) [2]: 1.80 h
Median tmax [3]: 3.7 h
t1/2, geometric mean [4]: 6.67 h
SMILES: C[C@](Cn1ccnn1)([C@@H](N)C(=O)O)S(=O)O [M1 Metabolite]

Abdominal pain [5]: 2 (0.4)
Constipation [5]: 6 (1.2)
Diarrhea [5]: 25 (5.0)
Headache [5]: 9 (1.8)
Nausea [5]: 29 (5.8)
Vomiting [5]: 20 (4.0)
SMILES: C[C@@H](O)[C@H]1C(=O)N2C(C(=O)O)=C(S[C@@H]3CN[C@H](C(=O)N(C)C)C3)[C@H](C)[C@H]12 [Meropenem, meropenem]
ALT increased [5]: 5 (1.0)
AST increased [5]: 3 (0.6)
Per pathogen clinical cure rate ([6]; Aerobic Gram-negative): (93.8) %
Per pathogen clinical cure rate ([6]; Aerobic Gram-positive): (91.9) %
Per pathogen clinical cure rate ([6]; Anaerobic Gram-negative): (96.4) %
Per pathogen clinical cure rate ([6]; Bacteroides thetaiotaomicron): (93.0) %
Per pathogen clinical cure rate ([6]; Klebsiella pneumoniae (CTX-M-15 ESBL-producing)): (0) %

SMILES: COc1c(N2C[C@@H]3CCCN[C@@H]3C2)c(F)cc2c(=O)c(C(=O)O)cn(C3CC3)c12 [moxifloxacin]
95% lower confidence bound on difference from baseline for QTcI vs placebo [7]: above 5 ms

SMILES: C[C@H]1COc2c(N3CCN(C)CC3)c(F)cc3c(=O)c(C(=O)O)cn1c23 [Levofloxacin, levofloxacin]
ALT increased [5]: 5 (0.9)
AST increased [5]: 5 (0.9)
Abdominal pain [5]: 2 (0.4)
Adverse events occurred, patients [5]: 34.4%
Constipation [5]: 17 (3.2)
Diarrhea [5]: 23 (4.3)
Headache [5]: 26 (4.9)
Nausea [5]: 9 (1.7)
Vomiting [5]: 6 (1.1)
gastrointestinal symptoms [5]: 11.4%
headache [5]: 4.9%
incidence of treatment-limiting adverse events [5]: < 2%
composite cure rate [8]: 57.6%
gram-negative pathogens isolated at baseline that were susceptible [9]: 70.7%
